These results are taken from ChEMBL document CHEMBL2074527, “Evidence for the absolute conformational specificity of the intestinal H+/peptide symporter, PEPT1” (J Biol Chem, 1998).

pKi: −log10 of the molar value.

For the test, the target named is T1, Solute carrier family 15 member 1 (Homo sapiens, UniProt P46059).
T1 sequence (P46059 whole entry): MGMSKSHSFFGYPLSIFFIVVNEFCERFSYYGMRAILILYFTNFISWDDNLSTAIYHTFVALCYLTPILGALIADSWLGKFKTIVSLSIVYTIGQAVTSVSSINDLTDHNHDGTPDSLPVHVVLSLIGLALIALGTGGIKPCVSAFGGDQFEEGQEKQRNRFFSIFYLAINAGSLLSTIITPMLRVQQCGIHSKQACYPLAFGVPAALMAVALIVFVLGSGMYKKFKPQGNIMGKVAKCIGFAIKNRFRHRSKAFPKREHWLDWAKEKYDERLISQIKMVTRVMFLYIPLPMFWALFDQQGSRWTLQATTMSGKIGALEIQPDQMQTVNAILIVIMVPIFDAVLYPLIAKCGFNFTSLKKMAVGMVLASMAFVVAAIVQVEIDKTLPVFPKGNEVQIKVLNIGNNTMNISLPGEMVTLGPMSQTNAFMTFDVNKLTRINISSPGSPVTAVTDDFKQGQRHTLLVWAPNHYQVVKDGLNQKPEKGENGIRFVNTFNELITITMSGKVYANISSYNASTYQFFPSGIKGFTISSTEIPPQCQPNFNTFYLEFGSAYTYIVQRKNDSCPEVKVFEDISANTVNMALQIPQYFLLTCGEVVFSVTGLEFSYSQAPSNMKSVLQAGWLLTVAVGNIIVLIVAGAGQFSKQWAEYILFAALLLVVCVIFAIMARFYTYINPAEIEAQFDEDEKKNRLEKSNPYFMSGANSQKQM
Briefly: TP_TRANSPORTER: inhibition of Gly-Sar uptake, 96% trans conformation in Caco-2 cells. It is filed as functional, cell-based.

In general, pKi refers to the negative decadic logarithm of the Ki, by convention in mol/L. Read a high pKi as a small Ki.

`CC(N)C(=S)N1CCCC1C(=O)O` (stereo unspecified) showed a pKi of 3.52.
